In PMC6251916, “CKD-506, a novel HDAC6-selective inhibitor, improves renal outcomes and survival in a mouse model of systemic lupus erythematosus” (Scientific Reports, 2018):

Tested on: NZB/W F1 female mice
Assay: Murine SLE model: kidney histopathology (H&E, PAS, Masson trichrome)
Format: in vivo, mouse
Conditions: group CKD10
Source text: Survival had been monitored until 42 weeks of age.
Kidneys were harvested from mice at the end of the study (at 43–44 weeks of age). For light microscopy, the tissues were fixed in 10% neutral buffered formalin, embedded in paraffin wax, sectioned at a thickness of 5 μm and stained with H&E (BBC Biochemical, Mount Vernon, WA, USA). Periodic acid/Schiff (PAS stain kit, BBC Biochemical) staining and Masson trichrome (BBC Biochemical) staining were used for the detection of […] and fibrosis, respectively. Inflammatory cell infiltration and mesangial proliferation were scored on a 4-point scale as 0 (none), 1+ (mild), 2+ (moderate), 3+ (moderate to severe) and 4+ (severe).

In the case of CKD-506, the “Masson's trichrome staining of kidneys” value is reported as “fibrosis”, the “Periodic acid-Schiff (PAS) staining of kidneys” value is reported as “dilated tubules and casts” and the “histopathological evaluation of the kidneys (H&E)” value is reported as “Large numbers of inflammatory cell infiltrations and mesangial proliferation”.
